Patent publication US11998596B2 (priority 2019, dated 2024)

Test system: PBMCs from ASF-convalescent animals
Type: cell-based, pig

For NSTLVIRI, the “Responding animals (%)” value was 4/20 (20%) and the “Responding animals (responders/tested)” value was 4/20 (20%).
